Measured values from PMC8371461 (Frontiers in Pharmacology, 2021).

Tests used:
RIOK2 = target: RIOK2; design: method as in Varin et al., 2015; details: ref Varin et al., 2015; cited from earlier work
HeLa cells = assay: LC3B positive autophagosomes, immunofluorescent staining; format: cell-based; details: 10 µM, three days
Procedure: (§1) Cells were fixed with PBS containing 0.5% of para-formaldehyde for 15 min at room temperature. After three washing steps in PBS, cells were permeabilized with PBS containing 0.3% of Triton X-100 (Sigma) for 1 h at room temperature. After washing with PBS three times, cells were incubated overnight with the anti-LC3B antibody in PBS with 1% bovine serum albumin (Sigma) at 4°C. After three washing steps in PBS, cells were incubated with the fluorescent secondary antibody for 90 min at 4°C in PBS with 1% bovine serum albumin. They were then incubated with […] DAPI (Thermofisher) in PBS for 15 min. After washing with PBS, cells were rinsed once in water prior to mounting in the FluorSave reagent (Millipore).
(§2) Depending of these transitory environmental conditions, autophagy can either promote survival or apoptosis ([Degtyarev et al., 2008]). PIK/AKT pathway inhibition has been reported to increase cell autophagy ([Palmieri et al., 2017]). More specifically, PIP4K2C has been described as a down-regulator of autophagy ([Sharma et al., 2019]).

PSC = assay: as above; format: cell-based, mouse; details: 10 µM, three days
Procedure: as §1, §2

Compound	Kd (RIOK2) [nM]	number of LC3B-positive autophagosomes (HeLa cells)	number of LC3B-positive autophagosomes (PSC)
O=C(Cc1ccc(-c2ccccc2)cc1)Nc1ccccn1 [Diphenpyramide]	160		
FC(F)(F)c1ccccc1-c1nc(NCc2cccs2)c2ccccc2n1 [NIH-12848]		confirmed in HeLa cells	
NC(=O)c1nc(Nc2ccccc2)sc1NC(=O)C1CCCCC1 [UNC-3230]		increased	increased
